Results: patent publication US20230000870A1, “METHODS OF TREATING CANCER IN BIOMARKER-IDENTIFIED PATIENTS WITH INHIBITORS OF CYCLIN-DEPENDENT KINASE 7 (CDK7)” (Syros Pharmaceuticals, Inc., priority 2019, published 2023)

Key:
CDK9/Cyclin T1 complex = CDK9/Cyclin T1 complex (Homo sapiens, UniProt P50750); experiment: CDK9 kinase inhibition assay (Caliper/LabChip EZ Reader); format: biochemical; settings: CDK9/Cyclin T1 8 nM, ATP 2 mM, 15 min at 27° C.
How it was run: (§1)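 Caliper/LabChip mobility-shift kinase assays at 27° C. CDK9/Cyclin T1 8 nM with 2 μM 5-FAM-CDK9tide, 10 mM MgCl2, 15 min; CDK12/Cyclin K 50 nM with 5-FAM-CDK9tide 2 μM, 2 mM MgCl2, 3 hr; CDK2/Cyclin E1 0.5 nM with 5-FAM-CDK7tide 2 μM, 2 mM MgCl2, 35 min; CDK7 35 min.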

A673 cells = experiment: Inhibition of proliferation of A673 cells (CyQUANT, 72 hour); format: cell-based, human; settings: read-out: Inhibition of Proliferation of A673 Cells (calculated IC50)
How it was run: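 Human Ewing's sarcoma A673 cells in DMEM + 10% FBS + 1 mM sodium pyruvate, 37 °C, 5% CO2. Compounds in 0.5-log serial dilutions, stated range 4 μM to […], for 72 h. Anti-proliferative effect read with CyQUANT per kit directions.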

CDK2/Cyclin E1 complex = CDK2/Cyclin E1 complex (Homo sapiens, UniProt P24941); experiment: CDK2 kinase inhibition assay (Caliper/LabChip EZ Reader); format: biochemical; settings: CDK2/Cyclin E1 0.5 nM, ATP 2 mM, 35 min at 27° C.
How it was run: as §1

[1] = target: CDK7/Cyclin H/MAT1 complex (Homo sapiens, UniProt P50613); experiment: CDK7 kinase inhibition assay (Caliper/LabChip EZ Reader); format: biochemical; settings: CDK7/Cyclin H/MAT1 6 nM, ATP 2 mM, 35 min at 27° C.
Sequence of CDK7/Cyclin H/MAT1 complex (P50613 whole entry): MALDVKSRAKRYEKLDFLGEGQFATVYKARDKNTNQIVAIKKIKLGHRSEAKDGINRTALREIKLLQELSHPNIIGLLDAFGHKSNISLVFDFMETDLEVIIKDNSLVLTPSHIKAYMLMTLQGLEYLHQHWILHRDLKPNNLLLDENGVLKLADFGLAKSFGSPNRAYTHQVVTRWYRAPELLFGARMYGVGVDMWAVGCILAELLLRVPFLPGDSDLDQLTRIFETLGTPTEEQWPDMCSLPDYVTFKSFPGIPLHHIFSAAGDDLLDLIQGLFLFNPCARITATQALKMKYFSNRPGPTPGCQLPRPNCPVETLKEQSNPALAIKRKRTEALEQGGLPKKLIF
Sequence of CDK7/Cyclin H/MAT1 complex (P51946 whole entry partner): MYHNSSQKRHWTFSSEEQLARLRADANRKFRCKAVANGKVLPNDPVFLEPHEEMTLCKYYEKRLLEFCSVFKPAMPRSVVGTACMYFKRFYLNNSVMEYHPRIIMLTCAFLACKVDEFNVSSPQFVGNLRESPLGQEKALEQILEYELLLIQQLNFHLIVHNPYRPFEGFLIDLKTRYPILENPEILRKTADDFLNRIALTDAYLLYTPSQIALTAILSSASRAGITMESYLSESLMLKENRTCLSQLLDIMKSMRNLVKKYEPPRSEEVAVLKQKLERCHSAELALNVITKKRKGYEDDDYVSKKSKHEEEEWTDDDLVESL
Sequence of CDK7/Cyclin H/MAT1 complex (P51948 whole entry partner): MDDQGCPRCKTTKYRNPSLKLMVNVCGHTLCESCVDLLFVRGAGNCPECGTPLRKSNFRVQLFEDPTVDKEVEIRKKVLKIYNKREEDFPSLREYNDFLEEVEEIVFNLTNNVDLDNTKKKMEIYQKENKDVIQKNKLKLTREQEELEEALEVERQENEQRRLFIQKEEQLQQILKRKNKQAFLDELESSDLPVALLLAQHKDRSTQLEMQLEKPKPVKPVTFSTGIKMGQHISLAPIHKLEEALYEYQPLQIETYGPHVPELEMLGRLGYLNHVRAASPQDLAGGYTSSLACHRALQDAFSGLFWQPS
How it was run: as §1

[2] = target: T1, CDK12 (aa686-1082)/Cyclin K complex (Homo sapiens, UniProt Q9NYV4); experiment: CDK12 kinase inhibition assay (Caliper/LabChip EZ Reader); format: biochemical; settings: CDK12 (aa686-1082)/Cyclin K 50 nM, ATP 2 mM, 3 hr at 27° C.
T1 construct: CDK12 (aa686-1082)/Cyclin K complex
T1 sequence (Q9NYV4 686-1082): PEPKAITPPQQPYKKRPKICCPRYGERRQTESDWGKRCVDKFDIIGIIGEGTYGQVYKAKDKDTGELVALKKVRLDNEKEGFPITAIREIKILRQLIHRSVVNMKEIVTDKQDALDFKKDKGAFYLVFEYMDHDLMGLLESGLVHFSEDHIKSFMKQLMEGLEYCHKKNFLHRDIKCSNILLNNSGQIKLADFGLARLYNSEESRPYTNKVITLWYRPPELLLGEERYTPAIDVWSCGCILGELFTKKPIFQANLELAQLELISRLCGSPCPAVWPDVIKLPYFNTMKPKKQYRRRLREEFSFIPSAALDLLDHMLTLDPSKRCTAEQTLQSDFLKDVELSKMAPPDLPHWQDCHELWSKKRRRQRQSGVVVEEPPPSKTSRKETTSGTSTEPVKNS
T1 sequence (O75909 whole entry partner, the tested form may be a part): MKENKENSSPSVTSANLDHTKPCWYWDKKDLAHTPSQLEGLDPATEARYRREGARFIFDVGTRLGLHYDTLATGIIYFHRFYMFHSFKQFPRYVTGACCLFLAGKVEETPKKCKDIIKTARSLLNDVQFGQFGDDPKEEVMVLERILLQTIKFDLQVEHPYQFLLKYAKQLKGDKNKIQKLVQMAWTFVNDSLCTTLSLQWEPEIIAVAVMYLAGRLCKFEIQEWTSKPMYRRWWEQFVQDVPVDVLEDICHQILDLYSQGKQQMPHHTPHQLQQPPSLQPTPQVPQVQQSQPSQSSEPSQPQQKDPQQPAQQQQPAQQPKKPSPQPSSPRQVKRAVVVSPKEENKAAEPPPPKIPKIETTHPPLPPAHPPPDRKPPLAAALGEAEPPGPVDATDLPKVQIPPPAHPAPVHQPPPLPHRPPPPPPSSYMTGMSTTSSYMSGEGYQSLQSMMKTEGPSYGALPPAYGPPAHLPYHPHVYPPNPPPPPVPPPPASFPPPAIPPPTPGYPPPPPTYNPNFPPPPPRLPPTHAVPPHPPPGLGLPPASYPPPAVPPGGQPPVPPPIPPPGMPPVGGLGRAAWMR
How it was run: as §1

HCC70 cells = experiment: Inhibition of proliferation of HCC70 cells (CyQUANT Direct, 72 hour); format: cell-based, human; settings: read-out: Inhibition of Proliferation of HCC70 Cells (calculated IC50)
Procedure: HCC70 cells: HCC70 cells are a cell line derived from human triple negative breast cancer. Representative compounds of the invention were tested at different concentrations (from 4 μM to […]; 0.5 log serial dilutions) for their ability to inhibit the proliferation of HCC70 cells. Known CDK inhibitors dinaciclib or N-((1S,3R)-3-((5-chloro-4-(1H-indol-3-yl) pyrimidin-2-yl)amino)cyclohexyl)-5-((E)-4-(dimethylamino)but-2-enamido)picolinamide and triptolide were used as positive controls. Cells were grown in ATCC-formulated RPMI-1640 Medium (ATCC 30-2001)+10% FBS. The cells were cultured at 37° C. in a humidified chamber in the presence of 5% CO2. Proliferation assays were conducted over a 72 hour time period. CyQUANT® Direct Cell Proliferation Assay (Life Technologies, Chicago, Ill. USA) was used to assess the anti-proliferative effects of the compounds following manufacturer's directions and utilizing the reagents supplied with the CyQUANT® Direct Cell kit.

Sequence of CDK9/Cyclin T1 complex (P50750 whole entry): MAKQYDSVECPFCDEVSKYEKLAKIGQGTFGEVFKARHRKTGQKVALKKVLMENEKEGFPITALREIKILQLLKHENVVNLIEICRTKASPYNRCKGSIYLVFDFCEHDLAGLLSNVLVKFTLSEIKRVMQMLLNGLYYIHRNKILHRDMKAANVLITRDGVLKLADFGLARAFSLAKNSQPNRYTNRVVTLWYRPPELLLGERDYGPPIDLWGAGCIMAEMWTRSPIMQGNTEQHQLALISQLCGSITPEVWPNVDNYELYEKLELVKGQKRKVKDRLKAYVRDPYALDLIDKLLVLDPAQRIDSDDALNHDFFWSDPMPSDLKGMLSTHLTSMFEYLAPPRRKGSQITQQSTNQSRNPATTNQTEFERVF
Sequence of CDK9/Cyclin T1 complex (O60563 whole entry partner): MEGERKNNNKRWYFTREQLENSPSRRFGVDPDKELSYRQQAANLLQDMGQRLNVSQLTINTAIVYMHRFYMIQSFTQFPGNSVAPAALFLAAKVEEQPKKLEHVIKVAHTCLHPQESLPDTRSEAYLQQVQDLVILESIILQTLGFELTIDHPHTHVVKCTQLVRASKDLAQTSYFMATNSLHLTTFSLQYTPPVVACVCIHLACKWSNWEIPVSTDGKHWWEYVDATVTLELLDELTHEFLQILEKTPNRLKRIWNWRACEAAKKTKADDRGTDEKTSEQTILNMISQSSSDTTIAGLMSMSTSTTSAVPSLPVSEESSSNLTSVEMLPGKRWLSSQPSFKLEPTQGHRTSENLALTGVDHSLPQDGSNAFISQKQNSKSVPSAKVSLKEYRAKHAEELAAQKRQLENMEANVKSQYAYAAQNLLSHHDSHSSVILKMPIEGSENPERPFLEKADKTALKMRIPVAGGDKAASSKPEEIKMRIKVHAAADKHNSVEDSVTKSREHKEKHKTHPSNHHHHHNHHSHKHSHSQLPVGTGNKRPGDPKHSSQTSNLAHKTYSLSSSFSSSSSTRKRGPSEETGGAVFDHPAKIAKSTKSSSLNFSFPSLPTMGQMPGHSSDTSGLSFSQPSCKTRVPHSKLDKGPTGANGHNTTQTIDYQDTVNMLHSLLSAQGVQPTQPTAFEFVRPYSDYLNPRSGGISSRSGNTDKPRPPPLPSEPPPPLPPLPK

| Compound | IC50 (CDK9/Cyclin T1 complex) | IC50 (A673 cells) | IC50 (CDK2/Cyclin E1 complex) | IC50 [1] | IC50 [2] | IC50 (HCC70 cells) |
| --- | --- | --- | --- | --- | --- | --- |
| CNC(=O)C1CNCC(Nc2ncc(C(F)(F)F)c(-c3c[nH]c4ccccc34)n2)C1 (stereo not drawn) [Compound 252] | ≥ 5000 nM | 200 to 5000 nM | 200 to 5000 nM | 20 to 200 nM | ≥ 5000 nM | – |
| CNC(=O)C1CNCC(Nc2ncc(C(F)(F)F)c(-c3c[nH]c4ccccc34)n2)C1 (stereo not drawn) [Compound 253] | 200 to 5000 nM | 20 to 200 nM | 20 to 200 nM | < 20 nM | 20 to 200 nM | – |
| CNC(=O)C1CNCC(Nc2ncc(C(F)(F)F)c(-c3c[nH]c4ccccc34)n2)C1 (stereo not drawn) [Compound 256] | ≥ 5000 nM | 200 to 5000 nM | 200 to 5000 nM | 20 to 200 nM | 200 to 5000 nM | – |
| CC(C)C1CC[C@H](Nc2ncc(C(F)(F)F)c(-c3c[nH]c4ccccc34)n2)CN1 (stereo partly drawn) [Compound 257] | ≥ 5000 nM | 200 to 5000 nM | ≥ 5000 nM | 20 to 200 nM | ≥ 5000 nM | – |
| N#Cc1ccc2c(-c3nc(NC4CCCNC4)ncc3C(F)(F)F)c[nH]c2c1C#N (stereo not drawn) [Compound 258] | 200 to 5000 nM | 20 to 200 nM | 200 to 5000 nM | < 20 nM | 200 to 5000 nM | – |
| CCC(=O)NC1CNCC(Nc2ncc(C(F)(F)F)c(-c3c[nH]c4c(S(C)(=O)=O)cccc34)n2)C1 (stereo not drawn) [Compound 259] | 200 to 5000 nM | 20 to 200 nM | 200 to 5000 nM | < 20 nM | 200 to 5000 nM | – |
| CC(C)C1CCC(Nc2ncc(C(F)(F)F)c(-c3c[nH]c4ccccc34)n2)CN1 (stereo not drawn) [Compound 260] | ≥ 5000 nM | 200 to 5000 nM | ≥ 5000 nM | 200 to 5000 nM | 200 to 5000 nM | – |
| CCc1cnc(NC2CCCNC2)nc1-c1n[nH]c2ncccc12 (stereo not drawn) [Compound 262] | 200 to 5000 nM | 20 to 200 nM | 200 to 5000 nM | < 20 nM | 200 to 5000 nM | – |
| CS(=O)(=O)c1cccn2c(C3CNCC(Nc4ncc(C(F)(F)F)c(-c5c[nH]c6ccccc56)n4)C3)nnc12 (stereo not drawn) [Compound 265] | 200 to 5000 nM | 20 to 200 nM | 200 to 5000 nM | 200 to 5000 nM | 200 to 5000 nM | – |
| FC(F)(F)c1cnc(NC2CNCC(c3nnc4ccccn34)C2)nc1-c1c[nH]c2ccccc12 (stereo not drawn) [Compound 266] | 200 to 5000 nM | 20 to 200 nM | 200 to 5000 nM | 20 to 200 nM | 200 to 5000 nM | – |
| CCc1cnc(NC2CCCNC2)nc1-c1c[nH]c2c(S(C)(=O)=O)cccc12 (stereo not drawn) [Compound 269] | – | – | – | – | – | 100 to 1000 nM |
| CCS(=O)(=O)c1ccc2c(-c3nc(NC4CCCNC4)ncc3C(F)(F)F)c[nH]c2c1 (stereo not drawn) [Compound 274] | 200 to 5000 nM | 20 to 200 nM | 200 to 5000 nM | < 20 nM | 200 to 5000 nM | – |
| CCc1cnc(NC2CCCNC2)nc1-c1n[nH]c2cc(C#N)ccc12 (stereo not drawn) [Compound 275] | 200 to 5000 nM | 20 to 200 nM | 200 to 5000 nM | < 20 nM | 200 to 5000 nM | – |
| CC(C)c1cnc(N[C@H]2CCCNC2)nc1-c1n[nH]c2nc(C#N)ccc12 [Compound 276] | ≥ 5000 nM | 200 to 5000 nM | ≥ 5000 nM | 20 to 200 nM | ≥ 5000 nM | – |
| COC1CCN(C(=O)c2ccc3c(-c4nc(NC5CCCNC5)ncc4C(F)(F)F)c[nH]c3c2)C1 (stereo not drawn) [Compound 280] | ≥ 5000 nM | – | ≥ 5000 nM | 20 to 200 nM | 200 to 5000 nM | 100 to 1000 nM |
| COC1CCN(C(=O)c2ccc3c(-c4nc(NC5CCCNC5)ncc4C(F)(F)F)c[nH]c3c2)C1 (stereo not drawn) [Compound 281] | 200 to 5000 nM | – | 200 to 5000 nM | < 20 nM | 200 to 5000 nM | 100 to 1000 nM |

| Compound | IC50 (CDK9/Cyclin T1 complex) | IC50 (A673 cells) | IC50 (CDK2/Cyclin E1 complex) | IC50 [1] | IC50 [2] | IC50 (HCC70 cells) |
| --- | --- | --- | --- | --- | --- | --- |
| CC1(O)CCN(C(=O)c2ccc3c(-c4nc(N[C@H]5CCCNC5)ncc4C(F)(F)F)c[nH]c3c2)CC1 [Compound 282] | ≥ 5000 nM | – | 200 to 5000 nM | < 20 nM | 200 to 5000 nM | 100 to 1000 nM |
| N#CC1CCN(C(=O)c2ccc3c(-c4nc(NC5CCCNC5)ncc4C(F)(F)F)c[nH]c3c2)C1 (stereo not drawn) [Compound 293] | 200 to 5000 nM | – | 200 to 5000 nM | < 20 nM | 200 to 5000 nM | 100 to 1000 nM |
| Nc1nc2c(-c3ccc4c(-c5nc(NC6CCCNC6)ncc5C(F)(F)F)c[nH]c4c3)cccc2s1 (stereo not drawn) [Compound 312] | – | – | – | 20 to 200 nM | 200 to 5000 nM | 100 to 1000 nM |
| N#Cc1cc(-c2ccc3c(-c4nc(NC5CCCNC5)ncc4C(F)(F)F)c[nH]c3c2)ccc1O (stereo not drawn) [Compound 315] | – | – | – | 20 to 200 nM | 200 to 5000 nM | 1000 to 5000 nM |
| FC(F)(F)c1cnc(N[C@H]2CCCNC2)nc1-c1c[nH]c2cc(/C=C/c3ccccc3)ccc12 [Compound 317] | – | – | – | 20 to 200 nM | 200 to 5000 nM | 1000 to 5000 nM |
| FC(F)(F)c1cc2[nH]cc(-c3ccc4c(-c5nc(N[C@H]6CCCNC6)ncc5C(F)(F)F)c[nH]c4c3)c2cn1 [Compound 319] | – | – | – | 20 to 200 nM | 200 to 5000 nM | 1000 to 5000 nM |
| Cn1cc(-c2ccc3c(-c4nc(N[C@H]5CCCNC5)ncc4C(F)(F)F)c[nH]c3c2)c2cnc(C(F)(F)F)cc21 [Compound 320] | – | – | – | 20 to 200 nM | 200 to 5000 nM | 1000 to 5000 nM |
| Nc1ncc2cccc(-c3ccc4c(-c5nc(NC6CCCNC6)ncc5C(F)(F)F)c[nH]c4c3)c2n1 (stereo not drawn) [Compound 322] | – | – | – | < 20 nM | 200 to 5000 nM | 100 to 1000 nM |
| OCCc1cccc(-c2ccc3c(-c4nc(NC5CCCNC5)ncc4C(F)(F)F)c[nH]c3c2)c1 (stereo not drawn) [Compound 324] | – | – | – | 20 to 200 nM | 200 to 5000 nM | 100 to 1000 nM |
| FC(F)(F)c1cnc(N[C@H]2CCCNC2)nc1-c1c[nH]c2cc(-c3ccc4ccncc4c3)ccc12 [Compound 325] | – | – | – | 20 to 200 nM | 200 to 5000 nM | 100 to 1000 nM |
| NS(=O)(=O)c1cccc(-c2ccc3c(-c4nc(NC5CCCNC5)ncc4C(F)(F)F)c[nH]c3c2)c1 (stereo not drawn) [Compound 326] | – | – | – | 20 to 200 nM | 200 to 5000 nM | 100 to 1000 nM |
| CCOc1ccccc1-c1ccc2c(-c3nc(NC4CCCNC4)ncc3C(F)(F)F)c[nH]c2c1 (stereo not drawn) [Compound 327] | – | – | – | 20 to 200 nM | 200 to 5000 nM | 100 to 1000 nM |
| NS(=O)(=O)c1ccc(-c2ccc3c(-c4nc(N[C@H]5CCCNC5)ncc4C(F)(F)F)c[nH]c3c2)cc1 [Compound 331] | – | – | – | 20 to 200 nM | 200 to 5000 nM | 100 to 1000 nM |
| Fc1cncc(-c2ccc3c(-c4nc(NC5CCCNC5)ncc4C(F)(F)F)c[nH]c3c2)c1 (stereo not drawn) [Compound 335] | – | – | – | – | – | 100 to 1000 nM |
| Cn1ncc2ccc(-c3ccc4c(-c5nc(NC6CCCNC6)ncc5C(F)(F)F)c[nH]c4c3)cc21 (stereo not drawn) [Compound 337] | – | – | – | 20 to 200 nM | 200 to 5000 nM | 100 to 1000 nM |
